This note sets out measurements from patent US8378098B2, “Imidazol[1,2-α]quinoxalines and derivatives for the treatment of cancers” (Universite de Montpellier I, priority 2007, dated 2013).

One series relates to A375 melanoma. The series can be described thus: in vitro cytotoxicity (antiproliferative activity) on A375 melanoma line. The format is cell-based, human. The following applies: for activity compared with EAPB0203: A375, comparing IC50 values of Table 3. An excerpt: Antiproliferative activity was first measured on a cancer cell line of human origin, A375 melanoma.
Imiquimod and fotemustine (Muphoran®) are used as controls in this study.
(§1) Several human carcinoma cell lines were used: • Lines A375, M4Be, RPMI7591 from human melanoma. • Line LS174T from colon carcinoma. • Line A 2780 from ovarian carcinoma. • The Raji line from B lymphoma. • Line MCF7 from breast carcinoma.
IC50 (concentration of the product tested which inhibits 50% of the maximum cell proliferation observed in the control wells) is determined graphically from the curve of the percentage of cell proliferation as a function of concentration of the product tested.

For another series, the system named is MCF7 (breast cancer). The series can be described thus: in vitro cytotoxicity on MCF7 breast cancer line. The format is cell-based. The settings on record: Homo sapiens, Table 2, unit inferred.
Source text: as §1

Series [1] can be described thus: lethal doses 50% reported in the pharmacokinetic study. The format is in vivo. The settings on record: species and route not stated in the sentence (rat study). The method, then:
(§2) Methods of assaying compounds EAPB0203, EAPB0503 and EAPB0603 by high performance liquid chromatography and detection by mass spectrometry (LC/ESI-MS) were developed and validated in human and rat plasmas. Pre-treatment of the samples consists of a liquid solid extraction preceded by precipitation of plasma proteins in acid medium. The chromatographic column used is C8 Zorbax eclipse XDB and the mobile phase (gradient) a mixture of acetonitrile and formate buffer (pH 3) (flow rate, 0.8 ml/min). The […] from 92 to 113%. The extraction coefficients are higher than 72%. The quantification limit is 5 μg/l for all analytes. Stability tests of the compounds in the matrices were also carried out. These methods were used to determine the pharmacokinetic parameters of compounds EAPB0203, EAPB0503 and EAPB0603 in the rat. The lethal doses 50% of compounds EAPB0203 and EAPB0503 are respectively 14.8 and 7.6 mg/kg.

The nature of the next series: in vivo. The settings on record: rat. How it is done:
as §2

The subject of a further series is RPMI7591 (melanoma). Nature of the series: in vitro cytotoxicity on RPMI7591 melanoma line. The format is cell-based. The settings on record: Homo sapiens, read-out: IC50 RPMI7591.
Source text: as §1

For another series, the system named is M4Be human melanoma. Nature of the series: anti-proliferative activity in vivo, M4Be human melanoma xenografted in athymic mice. The following applies: 20 mg/kg once per week i.p.; sacrifice at tumour volume 2 cm^3. How it is done:
FIG. 1: Effects of fotemustine (20 mg/kg once per week for 3 weeks) and EAPB0203 (20 mg/kg twice per week for 3 weeks) on tumour growth in athymic Swiss mice xenografted with M4Be human melanoma cell line.
Δ, control; ▪, EAPB0203; ●, fotemustine. The data are the results of only one experiment carried out on six mice per group. The results are represented as mean±SEM.
In this study, data are presented relating to the activity of EAPB0203 on the volume of a type of human melanoma tumour model (M4Be lines), xenografted in athymic mice. This study required as a preliminary step several tests of grafts of human melanoma cell lines in athymic mice before establishing the adequate animal model. The in vivo study was performed following the in vitro experiments described previously.
The activity and specificity of EAPB0203 in vivo on tumour growth of human melanoma are evaluated by monitoring tumour development in mice carrying M4Be melanoma treated by administration of fotemustine and EAPB0203 at various doses.
For this study, 18 Swiss nude mice (3 groups of 6 mice) were used. M4Be cancer cells in suspension were injected subcutaneously into the right flank of each athymic Swiss nude female 7-week-old mouse weighing 20-22 g at the beginning of the protocol. The mice were then maintained in a sterile atmosphere and received aseptic food and water. The weight of the mouse and the growth of the tumour in three dimensions were recorded twice a week.
A first group of 6 mice (reference) will receive fotemustine by intra-peritoneal route at a dose of 20 mg/kg once per week for 3 weeks, beginning 7 days after inoculation at the time when the tumour will be visible and palpable. A second group of 6 mice will receive EAPB0203 at the same dose of 20 mg/kg via intra-peritoneal route but twice per week (40 mg/kg per week). The third group (control) of 6 mice will receive only the administration carrier. Tumour volume is calculated by the following formula: length X width X height X 0.52, and is expressed as mean±SEM mm^3.
For fotemustine and EAPB0203, the sequence of administrations is a treatment of three weeks, then two weeks without treatment, and then a second treatment of three weeks.
(Xenograft models place foreign cells or tissue in a host animal.)

The test system of a further series is M4Be (melanoma). The series can be described thus: in vitro cytotoxicity on M4Be melanoma line. The format is cell-based. The settings on record: Homo sapiens, read-out: IC50 M4Be.
Source text: as §1

The test system of the next series is LS174T (colon cancer). Nature of the series: in vitro cytotoxicity on LS174T colon cancer line. The format is cell-based. The following applies: Homo sapiens, Table 2, unit inferred.
Source text: as §1

The subject of another series is Raji (B lymphoma). Nature of the series: in vitro cytotoxicity on Raji B lymphoma line. The format is cell-based, human. The following applies: Table 2, unit inferred.
Source text: as §1

[2] abbreviates: Homo sapiens, A-375, A375 melanoma line, Table 1, IC50 and standard deviation, read-out: IC50.
[3] abbreviates: A375, comparison of IC50 values.
Where [4] appears, read: Homo sapiens, A-375, A375, Table 3, read-out: IC50.

Like-named read-outs stand apart in the source and are kept apart here.

The term IC50 denotes the concentration that gives 50% inhibition. Take “1-furan-N-methylimidazo[1,2-a]quinoxalin-4-amine [EAPB01703]”: the half-inhibitory concentration (IC50) in the series on A375 melanoma (A375, Table 3, read-out: IC50) was determined as 74.1 ± 3.1 µM.
Take `COc1cccc2c1C(=O)c1c(O)c3c(c(O)c1C2=O)C[C@@](O)(C(=O)CO)C[C@@H]3O[C@H]1C[C@H](N)[C@H](O)[C@H](C)O1` [Doxorubicine, doxorubicin]: in the series on MCF7 (breast cancer), the half-maximal inhibitory concentration (IC50) is 0.13 ± 0.01 µM.
As to `CNc1nc2ccccc2n2c(CC(C)C)cnc12` [EAPB0103, 1-Isobutyl-N-methylimidazo[1,2-a]quinoxalin-4-amine], the IC50 with A375 melanoma (setting [2]) was 31.6 ± 2 µM.
The same measure, in the same setting: as for `CC(C)Cc1cnc2c(N(C)C)nc3ccccc3n12` [EAPB0104, 1-Isobutyl-N,N-dimethylimidazo[1,2-a]quinoxalin-4-amine], the figure is 66.3 ± 7.5 µM; as for `Clc1nc2ccccc2n2c(CCc3ccccc3)cnc12` [EAPB0201, 4-Chloro-1-(2-phenylethyl)imidazo[1,2-a]quinoxaline], 24 ± 0.5 µM.
As for `Nc1nc2ccccc2n2c(CCc3ccccc3)cnc12` [EAPB0202, 1-(2-phenylethyl)imidazo[1,2-a]quinoxalin-4-amine], in the series on A375 melanoma (setting [3]), the “activity times higher than that of fotemustine” value is recorded as 70 times, the “activity times higher than that of imiquimod” value came out at 30 times and the “times more active than EAPB0204” value is recorded as around 2 times. For the same compound, in the series with A375 melanoma (setting [2]), the half-maximal inhibitory concentration (IC50) was determined as 2.35 µM.
For `CN(C)c1nc2ccccc2n2c(CCc3ccccc3)cnc12` [EAPB0204, N,N-Dimethyl-1-(2-phenylethyl)imidazo[1,2-a]quinoxalin-4-amine], in the series with A375 melanoma (setting [2]), the IC50 was 80.1 ± 7 µM.
The same measure, in the same setting: then `COc1nc2ccccc2n2c(CCc3ccccc3)cnc12` [EAPB0206, 4-Methoxy-1-(2-phenylethyl)imidazo[1,2-a]quinoxaline], with 47.8 ± 5 µM.
With `CNc1nc2ccccc2n2c(-c3ccccc3)cnc12` [EAPB0403, N-methyl-1-phenylimidazo[1,2-a]quinoxalin-4-amine], the IC50 in the series on A375 melanoma (setting [4]) is 2.19 ± 0.08 µM.
As usually defined, the Vd is the apparent volume that relates the amount in the body to the concentration in plasma or blood. A word on the clearance: it is the volume of plasma or blood freed of the substance per unit of time. A low value points to inefficient removal. A word on the half-life: it is the time in which the quantity being followed falls by half. A higher half-life goes with slow loss. Turning to `CNc1nc2ccccc2n2c(-c3cccc(OC)c3)cnc12` [EAPB0503, 1-(3-methoxyphenyl)-N-methylimidazo[1,2-a]quinoxalin-4-amine], the “activity compared with EAPB0203” value with A375 melanoma is recorded as “higher than that of EAPB0203”. The IC50 in the series on A375 melanoma (setting [4]) came out at 0.18 ± 0.09 µM. The “lethal doses 50%” value in series [1] is reported as 7.6 mg/kg. Besides, in “in vivo” (iv, 5 mg/kg), the Vd was determined as 5.6 L/kg, the “area under the curve of plasma concentrations” value is 2310 ng·h/mL, the clearance is 36.7 mL/min/kg and the half-life was 1.76 h.
For the compound `CNc1nc2ccccc2n2c(-c3cccc(O)c3)cnc12` [EAPB0603, 1-(3-hydroxyphenyl)-N-methylimidazo[1,2-a]quinoxalin-4-amine], the “activity compared with EAPB0203” value in the series on A375 melanoma is listed as “higher than that of EAPB0203”. Moreover, in the series with A375 melanoma (setting [4]), the IC50 is 0.56 ± 0.12 µM. The metabolic relation entry in “in vivo” is reported as “active metabolite of EAPB0503”. In the series “in vivo” (iv, 5 mg/kg), the “elimination half-life (metabolite)” value worked out at 4.7 h.
Regarding `CNc1nc2ccccc2n2c(-c3ccc(OC)cc3)cnc12` [EAPB0703, 1-(4-methoxyphenyl)-N-methylimidazo[1,2-a]quinoxalin-4-amine], the “activity compared with EAPB0203” value in the series on A375 melanoma was “higher than that of EAPB0203”. Moreover, the IC50 with A375 melanoma (setting [4]) amounted to 0.37 ± 0.4 µM.
For the compound `CNc1nc2ccccc2n2c(-c3ccccc3OC)cnc12` [EAPB0803, 1-(2-methoxyphenyl)-N-methylimidazo[1,2-a]quinoxalin-4-amine], the IC50 with A375 melanoma (setting [4]) was found to be 122 ± 25 µM.
Take `CCOc1cccc(-c2cnc3c(NC)nc4ccccc4n23)c1` [EAPB0903, 1-(3-ethoxyphenyl)-N-methylimidazo[1,2-a]quinoxalin-4-amine]: in the series on A375 melanoma, the “activity compared with EAPB0203” value is on record as “higher than that of EAPB0203”. Besides, the 50% inhibitory concentration (IC50) in the series on A375 melanoma (setting [4]) amounted to 0.3 ± 0.01 µM.
Turning to `CNc1nc2ccccc2n2c(-c3cccc(Br)c3)cnc12` [EAPB01003, 1-(3-bromophenyl)-N-methylimidazo[1,2-a]quinoxalin-4-amine], in the series with A375 melanoma, the “activity compared with EAPB0203” value is on record as “higher than that of EAPB0203”. Also, the half-maximal inhibitory concentration (IC50) in the series with A375 melanoma (setting [4]) amounted to 0.65 ± 0.02 µM.
For `CNc1nc2ccccc2n2c(-c3cccc(C(F)(F)F)c3)cnc12` [EAPB01103], in the series with A375 melanoma (A375, Table 3, read-out: IC50), the IC50 came to 1.28 ± 0.18 µM.
Regarding `CNc1nc2ccccc2n2c(-c3cccc(Cl)c3)cnc12` [EAPB01203, 1-(3-chlorophenyl)-N-methylimidazo[1,2-a]quinoxalin-4-amine], the half-maximal inhibitory concentration (IC50) in the series with A375 melanoma (setting [4]) was 1.78 ± 0.35 µM.
On to `CNc1nc2ccccc2n2c(-c3cccc(C(=O)O)c3)cnc12` [EAPB01303, 1-(3-carboxyphenyl)-N-methylimidazo[1,2-a]quinoxalin-4-amine], for which the IC50 in the series on A375 melanoma (setting [4]) stood at 3.47 ± 0.55 µM.
Still for that read-out and setting: as for `CNc1nc2ccccc2n2c(-c3cccc(F)c3)cnc12` [EAPB01403, 1-(3-fluorophenyl)-N-methylimidazo[1,2-a]quinoxalin-4-amine], the figure is 24.9 ± 0.27 µM; as for `CNc1nc2ccccc2n2c(-c3cccc(C#N)c3)cnc12` [EAPB01503, 1-(3-cyanophenyl)-N-methylimidazo[1,2-a]quinoxalin-4-amine], 27 ± 2.2 µM.
The same measure, in the same setting: then `CNc1nc2ccccc2n2c(-c3cccc([N+](=O)[O-])c3)cnc12` [EAPB01603, 1-(3-nitrophenyl)-N-methylimidazo[1,2-a]quinoxalin-4-amine], with 40 ± 3.9 µM.
For `CCOP(=O)(OCC)C(C)NC(=O)N(CCCl)N=O` (stereo not drawn) [Fotemustine, fotemustine, reference compound], the half-maximal inhibitory concentration (IC50) in the series with A375 melanoma (Homo sapiens, A-375, read-out: IC50 A375) came out at 173 ± 24 µM; in the series with RPMI7591 (melanoma), 125 ± 49 µM; in the series with M4Be (melanoma), 326 ± 34 µM. In the series with M4Be human melanoma, the “day on which the last mice were euthanatized” value stood at 76 days.
In the case of `CC(C)Cn1cnc2c(N)nc3ccccc3c21` [Imiquimod, imiquimod], the IC50 in the series with A375 melanoma (Homo sapiens, A-375, Table 2, unit inferred, read-out: IC50 A375) stood at 70.3 ± 4.3 µM; in the series with LS174T (colon cancer), 34.4 ± 9.7 µM; in the series on RPMI7591 (melanoma) (Table 2, unit inferred), 53.7 ± 9.8 µM; in the series on Raji (B lymphoma) (Homo sapiens, Raji) it was 139 ± 12 µM; in the series on M4Be (melanoma) (Table 2, unit inferred), 33.5 ± 7.7 µM; in the series with MCF7 (breast cancer) it was 145 ± 7 µM.
In the series with LS174T (colon cancer), `CCc1c2c(nc3ccc(OC(=O)N4CCC(N5CCCCC5)CC4)cc13)-c1cc3c(c(=O)n1C2)COC(=O)[C@]3(O)CC` [Irinotecan, irinotecan] displayed an IC50 of 1.16 ± 0.07 µM.
For `CN(Cc1cnc2nc(N)nc(N)c2n1)c1ccc(C(=O)N[C@@H](CCC(=O)O)C(=O)O)cc1` [Methothrexate, methothrexate], in the series with Raji (B lymphoma), the IC50 came to 0.04 ± 0.005 µM.
As for `CNc1nc2ccccc2n2cc(-c3cccc(OC)c3)nc12` [N-methyl-2-(3-methoxyphenyl)imidazo[1,2-a]quinoxalin-4-amine], in the series with A375 melanoma (A375), the “activity times higher than EAPB0203” value came out at 100 times and the “activity times higher than that of EAPB0503” value is on record as 10 times. Further, in the series on A375 melanoma (Homo sapiens, A-375, melanoma (A375), text b219, read-out: IC50), the IC50 stood at 0.018 µM.
